Results taken from US20150030566A1, “ANTIMICROBIAL PEPTIDE COMPOSITIONS FOR PLANTS” (Stellenbosch University, priority 2012, published 2015).
Read-outs that look alike come from different tables or passages of the source. Non-standard residues stand in square brackets, D forms with d. Residues, ends and D or L forms follow the SMILES beside them. No end group written: not given here. Orn = NCCC[C@H](N)C(=O)O

What was measured:
Fusarium solani = assay: Microdilution broth assay; assay type: cell-based; set-up: MIC against F. solani in PDB (n): unit not given beside the values; conditions: for MIC against F. solani in PDB (n): potato dextrose broth (low salt PDB)
Procedure: (§1) Microdilution broth and agar assays were used to assess the antifungal activity of the cyclic decapeptides in liquid media and on solid (gel) media, respectively.
(§2) The antibacterial activity of the tyrocidines and gramicidin S against all the bacteria tested was determined by the methods described by Du Toit E A and Rautenbach M (2000) J. Microbiol. Methods, 42, 159-165. The antifungal activity of the tyrocidines against all the […] tested was determined by the methods described by Troskie A M, Vlok N M and Rautenbach M (2012) J. Microbiol. Methods, 91, 551-558.

Botrytis cinerea = assay: Microdilution broth assay; assay type: cell-based; set-up: MIC + SEM / MIC against B. cinerea in PDB (n): unit not given beside the values
Procedure: as §1, §2

[1] = test system: Cylindrocarpon and Campylocarpon spp; conditions: 13 fungicides evaluated; Halleen et al. 2007; cited from earlier work
black foot disease = conditions: field conditions; Halleen et al. 2007; cited from earlier work
[2] = potato dextrose broth (low salt PDB)

Row | Molecule | MIC against F. solani in PDB (n) (Fusarium solani) | MIC against B. cinerea in PDB (n) (Botrytis cinerea; [2]) | further results
1 | CC(C)C[C@@H]1NC(=O)[C@H](CCCN)NC(=O)[C@H](C(C)C)NC(=O)[C@H](Cc2ccc(O)cc2)NC(=O)[C@H](CCC(N)=O)NC(=O)[C@H](CC(N)=O)NC(=O)[C@@H](Cc2ccccc2)NC(=O)[C@H](Cc2ccccc2)NC(=O)C2CCCN2C(=O)[C@@H](Cc2ccccc2)NC1=O (some centres unmarked) [TrcA, Cyclo-(VOLfPFfNQY)] (HELM PEPTIDE1{F.[dF].N.Q.Y.V.[Orn].L.[dF].[O=C(C1CCCN1[*:1])[*:2]]}$PEPTIDE1,PEPTIDE1,1:R1-10:R2$$$V2.0) | 4.0 ± 0.4 (3) |  | MIC against B. cinerea in PDB (n) (Botrytis cinerea): 5.2 ± 0.6 (6)
2 | CCCCNC(=O)n1c(NC(=O)OC)nc2ccccc21 [benomyl] |  |  | in vitro mycelial inhibition [1]: able to effectively reduce mycelial growth in all fungal strains tested; protection of propagation material against black foot disease (black foot disease): failed to protect propagation against black foot disease under field conditions
3 | C=CCOC(Cn1ccnc1)c1ccc(Cl)cc1Cl (centres unmarked) [imazalil] |  |  | in vitro mycelial inhibition [1]: able to effectively reduce mycelial growth in all fungal strains tested; protection of propagation material against black foot disease (black foot disease): failed to protect propagation against black foot disease under field conditions
4 | CCCN(CCOc1c(Cl)cc(Cl)cc1Cl)C(=O)n1ccnc1.CCCN(CCOc1c(Cl)cc(Cl)cc1Cl)C(=O)n1ccnc1.CCCN(CCOc1c(Cl)cc(Cl)cc1Cl)C(=O)n1ccnc1.CCCN(CCOc1c(Cl)cc(Cl)cc1Cl)C(=O)n1ccnc1.[Cl][Mn][Cl] [prochloraz manganese chloride] |  |  | in vitro mycelial inhibition [1]: able to effectively reduce mycelial growth in all fungal strains tested; protection of propagation material against black foot disease (black foot disease): failed to protect propagation against black foot disease under field conditions
5 | Cyclo-(VKLfP(W,f)NQY) (VKLFPWFNQY; HELM PEPTIDE1{V.K.L.[dF].P.W.[dF].N.Q.Y}$PEPTIDE1,PEPTIDE1,1:R1-10:R2$$$V2.0; SMILES CC(C)C[C@@H]1NC(=O)[C@H](CCCCN)NC(=O)[C@H](C(C)C)NC(=O)[C@H](Cc2ccc(O)cc2)NC(=O)[C@H](CCC(N)=O)NC(=O)[C@H](CC(N)=O)NC(=O)[C@@H](Cc2ccccc2)NC(=O)[C@H](Cc2c[nH]c3ccccc23)NC(=O)[C@@H]2CCCN2C(=O)[C@@H](Cc2ccccc2)NC1=O) [TrcB1/B1′] | 5.9 ± 0.6 (3) | 3.6 ± 0.1 (6) | 
6 | Cyclo-(VKLfPFfNQY) (chain 1 VKL[dF]PF[dF]NQY; chain 2 VKL[dF]PF[dF]NQY; also: head-to-tail to a chain's N/C-terminus; listed as Bacillus aneurinolyticus) [TrcA1] | 7.9 ± 0.7 (3) | 4.1 ± 0.7 (6) | 
7 | Cyclo-(VKLfPWwNQY) (chain 1 VKL[dF]PW[dW]NQY; chain 2 VKL[dF]PW[dW]NQY; also: head-to-tail to a chain's N/C-terminus; listed as Bacillus aneurinolyticus) [TrcC1] | 32 ± 2.8 (3) | 8.9 ± 1.5 (3) | 
8 | Cyclo-(VOLfP(W,f)NQY) (VXLFPWFNQY; HELM PEPTIDE1{V.[Orn].L.[dF].P.W.[dF].N.Q.Y}$PEPTIDE1,PEPTIDE1,1:R1-10:R2$$$V2.0; SMILES CC(C)C[C@@H]1NC(=O)[C@H](CCCN)NC(=O)[C@H](C(C)C)NC(=O)[C@H](Cc2ccc(O)cc2)NC(=O)[C@H](CCC(N)=O)NC(=O)[C@H](CC(N)=O)NC(=O)[C@@H](Cc2ccccc2)NC(=O)[C@H](Cc2c[nH]c3ccccc23)NC(=O)[C@@H]2CCCN2C(=O)[C@@H](Cc2ccccc2)NC1=O) [TrcB/B′] | 11 ± 4.0 (3) | 5.1 ± 1.0 (6) | 
9 | Cyclo-(VOLfPFfNQF) (chain 1 V[Orn]L[dF]PF[dF]NQF; chain 2 V[Orn]L[dF]PF[dF]NQF; also: head-to-tail to a chain's N/C-terminus; listed as Bacillus aneurinolyticus) [PhcA] | 7.2 ± 1.0 (3) | 6.9 ± 1.4 (5) | loss of activity from PDB to YTSB (Fusarium solani; F. solani, PDB (low salt) vs YTSB (high salt)): ~5 fold; loss of activity from PDB to YTSB (Botrytis cinerea; B. cinerea, PDB (low salt) vs YTSB (high salt)): ~2 fold
10 | Cyclo-(VOLfPWwNQW) (chain 1 V[Orn]L[dF]PW[dW]NQW; chain 2 V[Orn]L[dF]PW[dW]NQW; also: head-to-tail to a chain's N/C-terminus; listed as Bacillus aneurinolyticus) [TpcC] | 4.6 ± 0.9 (3) | 3.6 ± 0.2 (6) | decrease in activity from YTSB to PDB (Fusarium solani; F. solani, YTSB (high salt) vs PDB (low salt)): approximately twofold; decrease in activity from PDB to YTSB (Botrytis cinerea; B. cinerea, YTSB (high salt) vs PDB (low salt)): approximately twofold
11 | Cyclo-(VOLfPWwNQY) (chain 1 V[Orn]L[dF]PW[dW]NQY; chain 2 V[Orn]L[dF]PW[dW]NQY; also: head-to-tail to a chain's N/C-terminus; listed as Bacillus aneurinolyticus) [TrcC] | 4.3 ± 0.4 (3) | 3.5 ± 0.2 (6) | 
